Measured values as given in publication PMC5216056 (Nature Communications, 2017).
“And” between values parts separate entries of the source, which are not always exact repeats. Identical values can stand only once. Like-named read-outs stand apart in the source and are kept apart here.

Columns and labels:
FP (h) = target: T1, FP (h) (Homo sapiens, UniProt P43088); test: CEREP panel; assay type: binding; settings: for % inhibition FP (h): 10 µM
T1 construct: CEREP (contract assay)

mCB2R = mCB2R (Mus musculus, UniProt P47936); test: PathHunter β-arrestin recruitment assay; assay type: cell-based; settings: for Emax: read-out: Emax ± SEM β-AR recruitment mCB2R; for Emax ± SEM β-AR recruitment mCB2R: normalized to 10 µM CP55940
mCB2R, sequence (P47936 whole entry): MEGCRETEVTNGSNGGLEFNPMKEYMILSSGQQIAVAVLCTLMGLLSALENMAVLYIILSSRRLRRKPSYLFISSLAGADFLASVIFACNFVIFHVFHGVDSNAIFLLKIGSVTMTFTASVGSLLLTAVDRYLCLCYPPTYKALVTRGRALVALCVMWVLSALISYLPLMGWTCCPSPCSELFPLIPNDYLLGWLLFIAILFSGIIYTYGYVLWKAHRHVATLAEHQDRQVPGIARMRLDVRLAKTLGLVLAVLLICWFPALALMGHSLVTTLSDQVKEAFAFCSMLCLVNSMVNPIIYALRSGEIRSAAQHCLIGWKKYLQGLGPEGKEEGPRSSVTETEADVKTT

[1] = Pharmacokinetics, oral administration in mice; assay type: in vivo, mouse
CB1 (h) = target: T2, CB1 (h) (Homo sapiens, UniProt P21554); test: biochemical; assay type: binding; settings: for % inhibition CB1 (h): 10 µM
T2 construct: CEREP (contract assay)
T2 sequence (P21554 whole entry): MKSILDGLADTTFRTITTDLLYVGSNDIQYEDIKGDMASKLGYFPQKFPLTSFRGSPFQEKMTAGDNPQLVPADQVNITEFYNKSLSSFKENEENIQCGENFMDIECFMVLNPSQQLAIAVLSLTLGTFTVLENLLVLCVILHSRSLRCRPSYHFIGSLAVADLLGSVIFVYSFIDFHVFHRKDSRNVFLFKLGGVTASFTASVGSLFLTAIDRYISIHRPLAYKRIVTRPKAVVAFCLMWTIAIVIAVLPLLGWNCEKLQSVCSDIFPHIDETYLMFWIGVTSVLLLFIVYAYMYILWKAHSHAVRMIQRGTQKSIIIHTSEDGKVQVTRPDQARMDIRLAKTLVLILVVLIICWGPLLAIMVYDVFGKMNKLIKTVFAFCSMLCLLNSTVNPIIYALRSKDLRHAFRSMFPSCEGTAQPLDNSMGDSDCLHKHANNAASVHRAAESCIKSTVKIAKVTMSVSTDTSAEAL

MT1 (ML1A) (h) = target: T3, MT1 (ML1A) (h) (Homo sapiens, UniProt P48039); test: CEREP panel; assay type: binding; settings: for inhibition at 10 µM: read-out: % inhibition MT1 (ML1A) (h)
T3 construct: CEREP (contract assay)
T3 sequence (P48039 whole entry): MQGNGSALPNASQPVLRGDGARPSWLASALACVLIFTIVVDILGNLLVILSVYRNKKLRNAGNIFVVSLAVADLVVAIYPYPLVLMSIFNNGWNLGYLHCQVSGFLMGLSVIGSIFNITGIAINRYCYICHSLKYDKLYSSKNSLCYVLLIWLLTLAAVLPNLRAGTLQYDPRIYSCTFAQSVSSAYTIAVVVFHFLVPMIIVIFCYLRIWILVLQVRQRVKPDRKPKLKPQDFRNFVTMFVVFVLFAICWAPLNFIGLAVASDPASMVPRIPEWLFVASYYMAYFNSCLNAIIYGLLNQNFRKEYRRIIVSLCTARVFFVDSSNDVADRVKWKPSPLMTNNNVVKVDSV

NK2 (h) = target: T4, NK2 (h) (Homo sapiens, UniProt P21452); test: CEREP panel; assay type: binding; settings: for % inhibition NK2 (h): 10 µM
T4 construct: CEREP (contract assay)
T4 sequence (P21452 1-398): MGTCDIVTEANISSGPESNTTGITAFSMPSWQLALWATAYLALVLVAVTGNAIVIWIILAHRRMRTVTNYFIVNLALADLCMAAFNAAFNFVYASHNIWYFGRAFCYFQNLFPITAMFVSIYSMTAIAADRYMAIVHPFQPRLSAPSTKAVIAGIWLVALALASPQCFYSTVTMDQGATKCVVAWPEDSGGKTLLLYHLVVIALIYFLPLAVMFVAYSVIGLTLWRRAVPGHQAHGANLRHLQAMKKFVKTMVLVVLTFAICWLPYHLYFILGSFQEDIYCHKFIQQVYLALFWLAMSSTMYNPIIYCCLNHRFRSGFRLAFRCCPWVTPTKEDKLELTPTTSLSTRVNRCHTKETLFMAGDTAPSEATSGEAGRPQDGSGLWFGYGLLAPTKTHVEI

P2X = test: CEREP panel; assay type: binding; settings: 10 µM
P2Y = test: CEREP panel; assay type: binding; settings: 10 µM
PAC1 (PACAP) (h) = target: T5, PAC1 (PACAP) (h) (Homo sapiens, UniProt P41586); test: CEREP panel; assay type: binding; settings: for % inhibition PAC1 (PACAP) (h): 10 µM
T5 construct: CEREP (contract assay)
T5 sequence (P41586 21-468): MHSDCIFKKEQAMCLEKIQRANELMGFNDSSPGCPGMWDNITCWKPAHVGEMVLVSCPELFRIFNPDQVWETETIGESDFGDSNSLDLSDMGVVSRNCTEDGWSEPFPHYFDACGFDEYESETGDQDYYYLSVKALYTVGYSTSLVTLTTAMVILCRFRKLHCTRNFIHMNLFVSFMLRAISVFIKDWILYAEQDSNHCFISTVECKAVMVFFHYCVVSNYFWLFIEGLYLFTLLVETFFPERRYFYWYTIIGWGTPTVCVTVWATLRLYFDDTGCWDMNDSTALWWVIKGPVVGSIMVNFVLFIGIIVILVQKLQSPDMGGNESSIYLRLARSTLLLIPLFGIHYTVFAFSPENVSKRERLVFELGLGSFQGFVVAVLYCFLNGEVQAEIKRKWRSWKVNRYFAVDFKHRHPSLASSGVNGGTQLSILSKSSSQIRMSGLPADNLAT

physchem = settings: organic solvent or mixture
in vitro [2] = settings: human, hepatocytes
in vitro [3] = settings: C57BL6, mouse, hepatocytes
[4] = test system: sigma (non-selective) (h); assay type: binding, human; settings: 10 µM
D2S (h) = target: T6, D2S (h) (Homo sapiens, UniProt P14416); test: CEREP panel; assay type: binding; settings: 10 µM
T6 construct: CEREP (contract assay)

in vitro [5] = settings: both, human, microsomes, pH 7.4
5-HT1A (h) = target: T7, 5-HT1A (h) (Homo sapiens, UniProt P08908); test: CEREP panel; assay type: binding
T7 construct: CEREP (contract assay)
T7 sequence (P08908 whole entry): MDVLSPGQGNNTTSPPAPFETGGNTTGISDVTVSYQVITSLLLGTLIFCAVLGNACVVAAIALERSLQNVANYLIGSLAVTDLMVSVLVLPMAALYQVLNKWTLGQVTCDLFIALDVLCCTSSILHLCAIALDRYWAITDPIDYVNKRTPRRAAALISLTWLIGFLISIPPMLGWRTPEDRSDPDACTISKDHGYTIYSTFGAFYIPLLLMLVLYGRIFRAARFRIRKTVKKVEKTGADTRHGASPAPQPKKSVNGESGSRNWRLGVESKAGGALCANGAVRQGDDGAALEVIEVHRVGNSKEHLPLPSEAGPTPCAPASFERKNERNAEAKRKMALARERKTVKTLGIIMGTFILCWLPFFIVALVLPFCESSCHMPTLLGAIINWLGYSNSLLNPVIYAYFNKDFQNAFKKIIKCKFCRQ

M4 (h) = target: T8, M4 (h) (Homo sapiens, UniProt P08173); test: CEREP panel; assay type: binding
T8 construct: CEREP (contract assay)
T8 sequence (P08173 whole entry): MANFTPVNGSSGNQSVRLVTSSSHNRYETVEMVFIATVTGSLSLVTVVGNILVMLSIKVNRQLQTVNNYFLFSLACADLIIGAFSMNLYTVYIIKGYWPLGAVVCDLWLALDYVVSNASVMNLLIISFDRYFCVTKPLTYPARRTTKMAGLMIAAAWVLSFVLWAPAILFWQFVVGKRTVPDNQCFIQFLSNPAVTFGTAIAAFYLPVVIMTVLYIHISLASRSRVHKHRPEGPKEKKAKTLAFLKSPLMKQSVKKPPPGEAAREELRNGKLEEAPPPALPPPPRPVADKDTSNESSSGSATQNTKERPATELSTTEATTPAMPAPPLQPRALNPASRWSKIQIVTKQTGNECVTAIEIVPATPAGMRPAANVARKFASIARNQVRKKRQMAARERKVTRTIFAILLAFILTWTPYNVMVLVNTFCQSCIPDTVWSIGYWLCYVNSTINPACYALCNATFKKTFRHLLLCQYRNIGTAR

H1 (h) = target: T9, H1 (h) (Homo sapiens, UniProt P35367); test: CEREP panel; assay type: binding; settings: 10 µM
T9 construct: CEREP (contract assay)

[6] = Pharmacokinetics, oral administration in rat; assay type: in vivo; settings: p.o.
A2B = target: T10, A2B (Homo sapiens, UniProt P29275); test: CEREP panel; assay type: binding
T10 construct: CEREP

B1 = target: T11, B1 (Homo sapiens, UniProt P46663); test: CEREP panel; assay type: binding
T11 construct: CEREP
T11 sequence (P46663 whole entry): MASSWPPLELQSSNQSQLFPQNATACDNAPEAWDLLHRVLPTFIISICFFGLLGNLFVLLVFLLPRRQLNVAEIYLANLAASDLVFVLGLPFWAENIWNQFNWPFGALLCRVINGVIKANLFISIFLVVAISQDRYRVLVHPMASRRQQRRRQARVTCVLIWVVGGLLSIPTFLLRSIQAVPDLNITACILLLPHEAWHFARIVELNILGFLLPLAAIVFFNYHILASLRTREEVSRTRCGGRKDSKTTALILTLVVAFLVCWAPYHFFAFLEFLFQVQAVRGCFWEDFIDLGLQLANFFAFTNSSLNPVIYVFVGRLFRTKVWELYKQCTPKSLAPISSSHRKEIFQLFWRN

BLT1 (LTB4) = target: T12, BLT1 (LTB4) (Homo sapiens, UniProt Q15722); test: CEREP panel; assay type: binding
T12 construct: CEREP
T12 sequence (Q15722 whole entry): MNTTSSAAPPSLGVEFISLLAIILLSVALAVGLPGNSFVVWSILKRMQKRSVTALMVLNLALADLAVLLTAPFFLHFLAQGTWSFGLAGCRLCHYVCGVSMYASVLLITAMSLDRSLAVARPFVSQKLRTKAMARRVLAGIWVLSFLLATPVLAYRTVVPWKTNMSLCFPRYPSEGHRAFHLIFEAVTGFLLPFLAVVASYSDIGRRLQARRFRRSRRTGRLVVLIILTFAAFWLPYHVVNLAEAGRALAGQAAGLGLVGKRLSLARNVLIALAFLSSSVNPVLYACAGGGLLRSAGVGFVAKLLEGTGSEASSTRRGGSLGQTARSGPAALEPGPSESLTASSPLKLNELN

MC3 = target: T13, MC3 (Homo sapiens, UniProt P41968); test: CEREP panel; assay type: binding
T13 construct: CEREP (contract assay)
T13 sequence (P41968 whole entry): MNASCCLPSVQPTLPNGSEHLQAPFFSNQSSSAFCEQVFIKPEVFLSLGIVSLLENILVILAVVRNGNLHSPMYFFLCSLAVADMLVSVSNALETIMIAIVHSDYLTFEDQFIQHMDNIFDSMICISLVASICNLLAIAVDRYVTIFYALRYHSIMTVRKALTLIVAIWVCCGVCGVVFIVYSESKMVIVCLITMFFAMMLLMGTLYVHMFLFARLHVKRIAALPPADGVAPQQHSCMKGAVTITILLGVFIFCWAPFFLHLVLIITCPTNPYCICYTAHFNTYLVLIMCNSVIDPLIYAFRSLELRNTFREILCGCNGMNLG

MCH2 = target: T14, MCH2 (Homo sapiens, UniProt Q969V1); test: CEREP panel; assay type: binding
T14 construct: CEREP (contract assay)

PR = test: CEREP panel; assay type: binding; settings: 10 µM
Cl- channel (GABA-gated) = test: CEREP panel; assay type: binding; settings: 10 µM
dopamine uptake reporter = target: T15, dopamine uptake reporter (Homo sapiens, UniProt Q01959); test: Dopamine uptake full dose-response (CEREP follow-up)
T15 construct: CEREP
T15 sequence (Q01959 whole entry): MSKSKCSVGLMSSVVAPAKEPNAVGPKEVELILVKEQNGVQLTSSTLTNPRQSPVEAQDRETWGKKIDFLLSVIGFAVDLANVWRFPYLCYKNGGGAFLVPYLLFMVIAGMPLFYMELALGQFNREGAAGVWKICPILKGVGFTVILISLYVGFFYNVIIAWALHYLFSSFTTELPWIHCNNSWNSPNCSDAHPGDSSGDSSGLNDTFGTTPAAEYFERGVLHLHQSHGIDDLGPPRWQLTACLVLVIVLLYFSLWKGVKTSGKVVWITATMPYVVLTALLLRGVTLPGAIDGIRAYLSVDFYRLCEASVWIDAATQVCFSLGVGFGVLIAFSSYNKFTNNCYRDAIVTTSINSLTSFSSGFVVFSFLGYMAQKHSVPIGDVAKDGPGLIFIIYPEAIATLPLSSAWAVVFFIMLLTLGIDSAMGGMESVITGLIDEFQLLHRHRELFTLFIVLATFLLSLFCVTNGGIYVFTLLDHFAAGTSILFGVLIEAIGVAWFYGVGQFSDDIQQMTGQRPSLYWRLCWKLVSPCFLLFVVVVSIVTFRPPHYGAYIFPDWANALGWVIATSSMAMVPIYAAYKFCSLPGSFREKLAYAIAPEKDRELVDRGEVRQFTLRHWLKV

COX2 (h) = target: T16, COX2 (h) (Homo sapiens, UniProt P35354); test: CEREP panel, enzyme and cell-based assays; assay type: biochemical; settings: 10 µM
T16 construct: CEREP (contract assay)
T16 sequence (P35354 18-604): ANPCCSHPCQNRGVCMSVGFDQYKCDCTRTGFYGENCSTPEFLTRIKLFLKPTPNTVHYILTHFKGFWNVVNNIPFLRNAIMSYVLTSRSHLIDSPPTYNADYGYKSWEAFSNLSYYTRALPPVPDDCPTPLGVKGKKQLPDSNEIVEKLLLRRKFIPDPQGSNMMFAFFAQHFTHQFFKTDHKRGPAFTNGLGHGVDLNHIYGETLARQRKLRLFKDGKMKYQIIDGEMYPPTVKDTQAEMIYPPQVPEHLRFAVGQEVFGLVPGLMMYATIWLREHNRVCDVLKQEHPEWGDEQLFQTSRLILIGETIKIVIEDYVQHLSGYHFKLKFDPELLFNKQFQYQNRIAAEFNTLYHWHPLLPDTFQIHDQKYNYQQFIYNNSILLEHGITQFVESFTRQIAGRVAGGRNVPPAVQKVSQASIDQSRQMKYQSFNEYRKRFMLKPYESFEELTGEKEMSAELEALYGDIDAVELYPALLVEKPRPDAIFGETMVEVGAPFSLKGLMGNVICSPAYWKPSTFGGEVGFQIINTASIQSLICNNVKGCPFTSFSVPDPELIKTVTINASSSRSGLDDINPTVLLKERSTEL

[7] = male, C57BL/6J or C57BL/6JRj, mouse, plasma, po, 5 mg/kg

T1 sequence (P43088 whole entry): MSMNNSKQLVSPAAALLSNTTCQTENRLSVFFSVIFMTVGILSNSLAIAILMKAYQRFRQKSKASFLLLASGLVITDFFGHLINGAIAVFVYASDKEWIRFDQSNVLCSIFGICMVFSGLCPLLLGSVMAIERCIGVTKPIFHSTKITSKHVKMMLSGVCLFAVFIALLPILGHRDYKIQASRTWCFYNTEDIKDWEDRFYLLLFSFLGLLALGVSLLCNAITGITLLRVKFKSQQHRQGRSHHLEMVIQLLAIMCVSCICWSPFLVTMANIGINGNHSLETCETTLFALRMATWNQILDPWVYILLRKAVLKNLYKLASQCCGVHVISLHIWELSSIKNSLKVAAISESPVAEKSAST

## Cc1c(C(=O)NN2CCCCC2)nn(-c2ccc(Cl)cc2Cl)c1-c1ccc(I)cc1 [AM251]
FP (h)
  % inhibition FP (h): 94%

## CCCCCCC(C)(C)c1cc(OC)c([C@@H]2C=C(CO)[C@@H]3C[C@H]2C3(C)C)c(OC)c1 [HU308]
mCB2R
  EC50: 339 nM
  Emax: 69 ± 3%
[1]; [7]
  AUC(0-inf): 298 ng·h/mL
  AUC(0-t): 253 ng·h/mL
  half-life: 3.3 h
[1]; male, C57BL/6J or C57BL/6JRj, mouse, plasma, po, 5 mg/kg, p.o., read-out: Cmax
  Cmax: 201 ng/mL
[1]; male, C57BL/6J or C57BL/6JRj, mouse, plasma, po, 5 mg/kg, p.o., read-out: Tmax
  Tmax: 0.5 h
[1]; p.o.
  AUCinf/dose: 59.7 kg·ng·h/mL/mg
CB1 (h); read-out: % inhibition CB1 (h)
  inhibition at 10 µM: 18%
MT1 (ML1A) (h)
  inhibition at 10 µM: -5%
NK2 (h); read-out: % inhibition NK2 (h)
  inhibition at 10 µM: 68%
P2X
  % inhibition P2X: 2%
P2Y
  % inhibition P2Y: 1%
PAC1 (PACAP) (h); read-out: % inhibition PAC1 (PACAP) (h)
  inhibition at 10 µM: -3%
physchem
  solubility: 2.06 µg/mL and 5 µM
In vitro [2]
  hepatocyte CLint: 8.3 µL/min/1e6 cells
In vitro [3]
  hepatocyte CLint: 4.7 µL/min/1e6 cells

## Cc1ccc2c(c1)Cc1c(C(=O)NN3CCCCC3)nn(-c3ccc(Cl)cc3Cl)c1-2 [Gp-1a]
[4]
  % inhibition sigma (non-selective) (h): 51%
FP (h)
  % inhibition FP (h): 88%
D2S (h)
  % inhibition D2S (h): 53%

## CCCCC/C=C\C/C=C\C/C=C\C/C=C\CCCC(=O)OC(CO)CO [2-AG, 2-arachidonoyl glycerol]
In vitro [5]
  microsomal CLint: 13 µL/min/mg

## CN1CCCC[C@H]1Cn1cc(C(=O)c2cc([N+](=O)[O-])ccc2I)c2ccccc21 [(S)-AM1241]
[4]
  % inhibition sigma (non-selective) (h): 101%
5-HT1A (h); 10 µM
  % inhibition 5-HT1A (h): 74%
M4 (h); 10 µM
  % inhibition M4 (h): 74%
H1 (h)
  % inhibition H1 (h): 78%
other
  Plasma protein binding human: 0.5 %free

## CCCC(C)(C)c1ccc2c(c1)OC(C)(C)[C@@H]1CC=C(C)C[C@@H]21 [JWH133]
mCB2R
  pEC50 ± SEM β-AR recruitment mCB2R: 6.80 ± 0.17
  Emax ± SEM β-AR recruitment mCB2R: 63 ± 7%
[6]
  AUCinf/dose: 583 kg·ng·h/mL/mg
  AUClast: 3330 ng·h/mL
  T1/2: 2.7 h
[6]; 6.0 mg/kg
  Cmax: 2070 ng/mL
  Tmax: 1.1 h
CB1 (h)
  % inhibition CB1 (h): 6
MT1 (ML1A) (h); 10 µM
  % inhibition MT1 (ML1A) (h): -4%
NK2 (h)
  % inhibition NK2 (h): 36%
P2X
  % inhibition P2X: -5%
P2Y
  % inhibition P2Y: 3%
PAC1 (PACAP) (h)
  % inhibition PAC1 (PACAP) (h): 12%
[4]
  % inhibition sigma (non-selective) (h): 2%

## Cc1c(C(=O)NN2CCCCC2)nn(-c2ccc(Cl)cc2Cl)c1-c1ccc(Cl)cc1 [SR141716A]
A2B
  inhibition at 10 µM: -7%
B1
  inhibition at 10 µM: -3%
BLT1 (LTB4)
  inhibition at 10 µM: 14%
MC3
  inhibition at 10 µM: 53%
MCH2
  inhibition at 10 µM: -3%
MT1 (ML1A) (h); 10 µM
  inhibition at 10 µM: 62%
PR
  % inhibition PR: 12%
Cl- channel (GABA-gated)
  % inhibition Cl- channel (GABA-gated): 83%
physchem
  solubility: 1.23 µg/mL and 2.7 µM
In vitro [5]
  microsomal CLint: 20 µL/min/mg
In vitro [2]
  hepatocyte CLint: 5.7 µL/min/1e6 cells
In vitro [3]
  hepatocyte CLint: 65 µL/min/1e6 cells

## CCCCC/C=C\C/C=C\C/C=C\C/C=C\CCCC(=O)NCCO [Anandamide, N-arachidonoylethanolamine]
In vitro [5]
  microsomal CLint: 47 µL/min/mg

## CCCCCCC(C)(C)c1cc(OC)c(C2=C[C@H]3CC[C@]2(CO)C3(C)C)c(OC)c1 [HU910]
mCB2R
  pEC50 ± SEM β-AR recruitment mCB2R: 6.78 ± 0.16
  Emax ± SEM β-AR recruitment mCB2R: 66 ± 1%
[1]; p.o.
  AUCinf: 904 ng·h/mL
  AUCinf/dose: 301 kg·ng·h/mL/mg
  AUClast: 895 ng·h/mL
  Cmax: 495 ng/mL
  T1/2: 5.2 h
  Tmax: 1.0 h
Dopamine uptake reporter
  IC50: 1400 nM
CB1 (h)
  % inhibition CB1 (h): 71%
MT1 (ML1A) (h); 10 µM
  % inhibition MT1 (ML1A) (h): 52%
NK2 (h)
  % inhibition NK2 (h): 31%
P2X
  % inhibition P2X: -10%
P2Y
  % inhibition P2Y: -7%
PAC1 (PACAP) (h)
  % inhibition PAC1 (PACAP) (h): 0%
other
  Plasma protein binding human: 1.8 %free

## Cc1c(C(=O)c2cccc3ccccc23)c2cccc3c2n1[C@H](CN1CCOCC1)CO3 [WIN55212-2]
FP (h)
  % inhibition FP (h): 81%
COX2 (h)
  % inhibition COX2 (h): 50%

## CCCCCCC(C)(C)c1ccc([C@@H]2C[C@H](O)CC[C@H]2CCCO)c(O)c1 [CP55940]
mCB2R
  EC50: 9.55 nM
  Emax: 96 ± 1%
FP (h)
  inhibition at 10 µM: 100%
5-HT1A (h)
  inhibition at 10 µM: 92%
M4 (h)
  inhibition at 10 µM: 55%
In vitro [5]
  microsomal CLint: 80 µL/min/mg

## COc1ccc(C(=O)c2c(C)n(CCN3CCOCC3)c3cc(I)ccc23)cc1 [AM630]
FP (h)
  % inhibition FP (h): 66%
COX2 (h)
  % inhibition COX2 (h): 96%
Cl- channel (GABA-gated)
  % inhibition Cl- channel (GABA-gated): 87%
